Experimental data reported in patent US20130130928A1, “METHODS FOR PREDICTING OR MONITORING WHETHER A PATIENT AFFECTED BY A CANCER IS RESPONSIVE TO A TREATMENT WITH A MOLECULE OF THE TAXOID FAMILY” (INSTITUT GUSTAVE ROUSSY, priority 2010, published 2013).

What was measured:
[1] = test system: prostate cancer; settings: cited from earlier work
[2] = test system: IGR-CaP1 docetaxel-resistant cell lines (IGR-CaP1-R); experiment: Genome-wide microarray gene expression analysis of docetaxel-resistant vs parental IGR-CaP1 cells, first analysis (Tables 1-4, FC exp1); assay type: cell-based, human
Experimental: (§1) The human androgen-independent IGR-CaP1 cell line recently obtained for a localized prostate cancer was maintained in RPMI medium complemented with 10% FBS and antibiotics.
Quality of RNA preparation, based on the RNA Integrity Number (RIN), was assessed using the Agilent RNA 6000 Nano Kit as developed on the Agilent 2100 Bioanalyzer device (Agilent Technologies, Palo Alto, Calif.). […] RNA samples were frozen in nuclease-free water (Qiagen).
Parental and resistant-cell line total RNAs were directly compared by using Agilent oligonucleotide dual-color technology, running dye-swap and duplicate experiments. Total RNA from the parental IGR-CaP1 cell line without treatment was used as the RNA reference. […] Probe synthesis and labeling were performed by Agilent's Low Fluorescent Low input Linear Amplification Kit. Hybridization was performed on the Agilent 4×44K Human 1A (G4112F) long (60-bp) oligonucleotide microarrays (Agilent Technologies) by using reagents and protocols provided by the manufacturer. Feature extraction software provided by Agilent (Version A.9.5.3.1) was used to quantify the intensity of fluorescent images and to normalize results using the linear and lowess subtraction method.
The methodology described below is based on a dose-dependent gene expression changes:
Under the hypothesis of a clone enrichment, and/or a biological effect due to drug increasing, monotonically increasing or decreasing expression profiles were identified by using a 5-parameters logistic regression model:
where yg is the log.ratio of treatment vs. reference for the gene g, x is the drug-dose in Log10[nM], and B, T, xc, p are, respectively, the estimated minimal value, the estimated maximal value, the slope at the inflexion point, and the asymmetric parameter. For each probe, parameters were first initialized with the observed values, and then optimized by an iterative method of gradient (the Newton-Raphson method). The aim of this iterative algorithm is to minimize the weighted quadratic sum of residuals:
The performance of the fitting was measured, for each probe, by a robust linear regression (RLR) of the fitted values against the observed values. Probes potentially associated with the drug increasing were selected on the 2 following criterion:
RLRp-value ≦1e-5, and |fold change|≧2 between the first and the last dose (resp: 5 and 200 nM), considering the fold change estimated by the 5-parameters logistic regression model. Calculations and graphic visualizations were performed in R (free software version 2.6.2), by using the package “MASS” (version 7.2-40), and supplemental scripts, in R language, written in the lab (F. Commo).
Untreated IGR-CaP1 parental cell lines were used as baseline. Such genes were those for which expression changes (at least one probe in case of multiple probe sets per gene) appeared as drug-dependent, in the sense of criterion described above.

[3] = test system: IGR-CaP1 cells; experiment: Generation of acquired resistance to docetaxel in vitro (dose-escalation selection of clones); assay type: cell-based, human; settings: selection with docetaxel, before proliferation was regained
From the text: The prostate cancer cell line IGR-CaP1 is described in CNCM deposit number I-4126 on Feb. 10, 2009.
as §1
Prostate cancer IGR-CaP1 cells were used to generate successive docetaxel-resistant cell lines. […] Cell cycle analysis was done to show acquired resistance to drug.

[4] = test system: docetaxel resistant cells (PC3 and DU145); settings: cited from earlier work
[5] = IGR-CaP1-R 100 nM docetaxel clone vs parental IGR-CaP1

SMILES	patients developing resistance to the chemotherapy ([1]; from the beginning or in a secondary way)	toxicity ([1]; patients)	survival ([1]; prostate cancer patients, TAX 327 and SWOG 99-16)	ZFP62 gene expression 5 nM ([2]; IGR-CaP1-R 5 nM docetaxel clone vs parental IGR-CaP1)	ZFP62 gene expression 12 nM ([2]; IGR-CaP1-R 12 nM docetaxel clone vs parental IGR-CaP1)	ZFP62 gene expression 25 nM ([2]; IGR-CaP1-R 25 nM docetaxel clone vs parental IGR-CaP1)	ZFP62 gene expression 50 nM ([2]; IGR-CaP1-R 50 nM docetaxel clone vs parental IGR-CaP1)	LRRC44 gene expression 100 nM [2, 5]	ZFP62 gene expression 100 nM [2, 5]	ZFP62 gene expression 200 nM ([2]; IGR-CaP1-R 200 nM docetaxel clone vs parental IGR-CaP1)	cell death on addition of docetaxel [3]	apoptosis [4]	clusterin expression [4]
CC(=O)O[C@@]12CO[C@@H]1C[C@H](O)[C@@]1(C)C(=O)[C@H](O)C3=C(C)[C@@H](OC(=O)[C@H](O)[C@@H](NC(=O)OC(C)(C)C)c4ccccc4)C[C@@](O)([C@@H](OC(=O)c4ccccc4)[C@H]21)C3(C)C [docetaxel]	almost half	great toxicity	increase in survival	0.190	0.246	0.278	0.402	0.139	0.482	0.503	a large majority of cells initially underwent cell death	–	–
Oc1ccc(C=Cc2cc(O)cc(O)c2)cc1 [resveratrol]	–	–	–	–	–	–	–	–	–	–	–	increase of apoptosis	decreased expression of clusterin
